Data published in patent US11234436B2, “Method for controlling non-crop pests” (BASF Agrochemical Products B.V., priority 2015, dated 2022).

Test system: German Cockroach (Blattella germanica)
Assay: Test 1: activity against German cockroach, treated glass vial contact, mortality
Assay type: in vivo
Conditions: alone, 1 h exposure in treated vial
Protocol: Test 1. Activity Against German Cockroach (Blattella germanica)
Glass vials were treated with 445 μl of varying concentrations of the technical grade active ingredient dissolved in acetone. Vials were turned on their sides and placed on an automated roller table. The vials were rolled (6 rpm) uncapped to allow an even coating of the treatment. Each treatment was replicated five times.
Prior to infestation, cockroaches were incapacitated using carbon dioxide (CO2). Approximately 6 insects were transferred with featherweight, broad tip forceps into treated vials, and held in an environmental chamber at 27° C. and 80% relative humidity for one hour. Following this exposure period, a small amount of CO2 was used to incapacitate the insects facilitating removal from treated vials. Insects were then transferred to 16 oz plastic holding containers provisioned with a small piece of dry cat food and a cotton wick moistened with water, and returned to the environmental chamber. Mortality was assessed at 1, 2, and 3 days after exposure (DAE).

With `CC1(C)C(C=C(Cl)Cl)C1C(=O)OC(C#N)c1cccc(Oc2ccccc2)c1` (stereo not drawn) [Alphacypermethrin, alpha-cypermethrin] the “Average Control %” value (Test Mixture 1.4, 1.96 ppm) was 0%.
`CCOCn1c(-c2ccc(Cl)cc2)c(C#N)c(Br)c1C(F)(F)F` [Chlorfenapyr, chlorfenapyr] was tested, and the “Average Control %” value (Test Mixture 1.3, 100 ppm) was 3.3%.
For `CN(C(=O)c1ccccc1)c1cccc(C(=O)Nc2c(Br)cc(C(F)(C(F)(F)F)C(F)(F)F)cc2C(F)(F)F)c1F` [Compound i) of formula (I), broflanilide], the “Average Control %” value (Mixture 1.1, 9.2 ppm) was 10%, the “Average Control %” value (Test Mixture 1.2, 10 ppm) was 10% and the “Average Control %” value (Test Mixture 1.3, 9.5 ppm) was 26.7%. The “Average Control %” value (Test Mixture 1.4, 9.5 ppm) was 46.7%.
With `CN/C(=N/CC1CCOC1)N[N+](=O)[O-]` (centres unmarked) [Dinotefuran, dinotefuran] the “Average Control %” value (Mixture 1.1, 2.6 ppm) was 16.7% and the “Average Control %” value (Test Mixture 1.2, 4.1 ppm) was 30%.
